From PubChem BioAssay AID206 (DTP/NCI, 2004)
“And” between values parts separate entries of the source, which are not always exact repeats. Equal values may be shown once. Results filed as inconclusive are left out.

Tested on: nude mice, HT29 intrarenal xenograft, tumor weight T/C
Experiment: NCI In Vivo Anticancer Drug Screen. Data for tumor model HT29;CX-1 Human Adenocarcinoma (MER+) (intrarenal inoculation) in NU/NU Swiss (nude) mice
Conditions: endpoint: mean tumor weight change, higher = larger tumour
How it was run: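 Tumor-bearing mice received test compound or vehicle, and tumor size or survival was recorded. Values are the treated-group measurement divided by the vehicle-treated control measurement.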

[1] = dose: 75.0 mg/kg/injection, schedule: Q04DX004 (sc), vehicle: saline with Tween-80
[2] = dose: 150.0 mg/kg/injection, schedule: Q04DX004 (sc), vehicle: saline with Tween-80
[3] = dose: 300.0 mg/kg/injection, schedule: Q04DX004 (sc), vehicle: saline with Tween-80
[4] = dose: 50.0 mg/kg/injection, schedule: Q04DX004 (sc), vehicle: saline
[5] = dose: 100.0 mg/kg/injection, schedule: Q04DX004 (sc), vehicle: saline
[6] = dose: 200.0 mg/kg/injection, schedule: Q04DX004 (sc), vehicle: saline
[7] = dose: 1200.0 mg/kg/injection, schedule: Q04DX004 (sc), vehicle: Klucel (hydroxypropylcellulose) (HPC)
[8] = dose: 100.0 mg/kg/injection, schedule: Q01DX010 (sc), vehicle: saline with Tween-80
[9] = dose: 200.0 mg/kg/injection, schedule: Q01DX010 (sc), vehicle: saline with Tween-80
[10] = dose: 400.0 mg/kg/injection, schedule: Q01DX010 (sc), vehicle: saline with Tween-80
[11] = dose: 800.0 mg/kg/injection, schedule: Q01DX010 (sc), vehicle: saline with Tween-80
[12] = dose: 100.0 mg/kg/injection, schedule: Q04DX004 (sc), vehicle: saline with Tween-80
[13] = dose: 200.0 mg/kg/injection, schedule: Q04DX004 (sc), vehicle: saline with Tween-80
[14] = dose: 50.0 mg/kg/injection, schedule: Q04DX004 (sc), vehicle: saline with Tween-80
[15] = dose: 50.0 mg/kg/injection, schedule: Q01DX010 (sc), vehicle: saline
[16] = dose: 50.0 mg/kg/injection, schedule: Q01DX010 (sc), vehicle: saline with Tween-80

Structure (SMILES): [CH3][Sn]([CH3])([Cl])[S]CCN
- T/C (dose: 18.75 mg/kg/injection, schedule: Q04DX004 (sc), vehicle: suspension in saline): 92 % of control
- T/C (dose: 37.5 mg/kg/injection, schedule: Q04DX004 (sc), vehicle: suspension in saline): 65 % of control
- T/C (dose: 75.0 mg/kg/injection, schedule: Q04DX004 (sc), vehicle: suspension in saline): 40 % of control

Structure (SMILES): CN=C(N)N/N=C(\C)c1ccc2oc3ccc(/C(C)=N/NC(N)=NC)cc3c2c1
- T/C [1]: 156 % of control
- T/C [2]: 63 % of control
- T/C [3]: 98 % of control

Structure (SMILES): CCCCNC(C)C1(O)Cc2c(O)c3c(c(O)c2C(OC2CC(N)C(O)C(C)O2)C1)C(=O)c1c(OC)cccc1C3=O (centres undefined)
- T/C (dose: 100.0 mg/kg/injection, schedule: Q01DX010 (sc), vehicle: water): 44 % of control

Structure (SMILES): CCNC(=O)OCc1c(COC(=O)NCC)c(-c2ccc(Cl)c(Cl)c2)n2c1CCC2
- T/C [1]: 5 % of control and 19 % of control
- T/C [2]: 66 % of control

Structure (SMILES): NC1=NC(=O)N2CC12 (centres undefined)
- T/C [4]: 103 % of control
- T/C [5]: 85 % of control
- T/C [6]: 79 % of control

Structure (SMILES): Oc1c(Cl)cc(Cl)cc1C1N2CCCCC2C2c3cccn3-c3ccccc3N21 (centres undefined)
- T/C [7]: 111 % of control

Structure (SMILES): CCOC(=O)c1ccc(NC(=O)Nc2nccs2)cc1
- T/C [8]: 54 % of control
- T/C [9]: 58 % of control
- T/C [10]: 74 % of control
- T/C [11]: 67 % of control

Structure (SMILES): COc1cc2c(c(OC)c1OC)-c1ccc(OC)c(=O)cc1[C@@H](NC(=O)CCl)CC2
- T/C (dose: 0.63 mg/kg/injection, schedule: Q04DX004 (sc), vehicle: saline with Tween-80): 60 % of control
- T/C (dose: 1.25 mg/kg/injection, schedule: Q04DX004 (sc), vehicle: saline with Tween-80): 32 % of control
- T/C (dose: 2.5 mg/kg/injection, schedule: Q04DX004 (sc), vehicle: saline with Tween-80): 57 % of control

Structure (SMILES): Nc1ncnc2c1ncn2C1OC(CO)C(O)C1O (centres undefined)
- T/C (dose: 37.5 mg/kg/injection, schedule: Q04DX004 (sc), vehicle: saline): 97 % of control
- T/C (dose: 75.0 mg/kg/injection, schedule: Q04DX004 (sc), vehicle: saline): 84 % of control
- T/C (dose: 150.0 mg/kg/injection, schedule: Q04DX004 (sc), vehicle: Klucel (hydroxypropylcellulose) (HPC)): 67 % of control
- T/C (dose: 150.0 mg/kg/injection, schedule: Q04DX004 (sc), vehicle: saline): 44 % of control
- T/C (dose: 300.0 mg/kg/injection, schedule: Q04DX004 (sc), vehicle: Klucel (hydroxypropylcellulose) (HPC)): 78 % of control
- T/C (dose: 600.0 mg/kg/injection, schedule: Q04DX004 (sc), vehicle: Klucel (hydroxypropylcellulose) (HPC)): 94 % of control
- T/C [7]: 66 % of control

Structure (SMILES): COCCCNC1=C(C#N)C(=O)NC(c2cccc([N+](=O)[O-])c2)S1 (centres undefined)
- T/C [12]: 91 % of control
- T/C [13]: 165 % of control
- T/C (dose: 800.0 mg/kg/injection, schedule: Q04DX004 (sc), vehicle: saline with Tween-80): 164 % of control

Structure (SMILES): C[Si](C)(C)O/C=C1\CCCCC1=O
- T/C [14]: 163 % of control
- T/C [12]: 92 % of control
- T/C [13]: 123 % of control
- T/C (dose: 400.0 mg/kg/injection, schedule: Q04DX004 (sc), vehicle: saline with Tween-80): 65 % of control

Structure (SMILES): CCCCCC(O)C1C(=O)OC(C)C(O)/C=C/C=C/C=C/C=C\C=C(\C)C(O)CC(O)CC(O)CC(O)CC(O)CC(O)CC1O (centres undefined)
- T/C (dose: 37.5 mg/kg/injection, schedule: Q04DX004 (sc), vehicle: distilled water + alcohol): 73 % of control
- T/C (dose: 75.0 mg/kg/injection, schedule: Q04DX004 (sc), vehicle: distilled water + alcohol): 110 % of control
- T/C (dose: 150.0 mg/kg/injection, schedule: Q04DX004 (sc), vehicle: distilled water + alcohol): 107 % of control

Structure (SMILES): OCCN1CCN(CC/C=C2/c3ccccc3Sc3ccc(Cl)cc32)CC1
- T/C (dose: 25.0 mg/kg/injection, schedule: Q04DX004 (sc), vehicle: saline): 160 % of control
- T/C [4]: 87 % of control
- T/C [5]: 82 % of control
- T/C [6]: 40 % of control

Structure (SMILES): COc1cccc2c1C(=O)c1c(O)c3c(c(O)c1C2=O)C[C@@](O)(/C(C)=N/NC(=O)c1ccc(Cl)cc1)C[C@@H]3OC1CC(N)C(O)C(C)O1 (some centres undefined)
- T/C (dose: 10.0 mg/kg/injection, schedule: Q04DX004 (sc), vehicle: water): 88 % of control
- T/C (dose: 20.0 mg/kg/injection, schedule: Q04DX004 (sc), vehicle: water): 39 % of control
- T/C (dose: 80.0 mg/kg/injection, schedule: Q04DX004 (sc), vehicle: water): 25 % of control

Structure (SMILES): CC1CN1P1(N2CC2C)=NP(N2CC2C)(N2CC2C)=NP(N2CC2C)(N2CC2C)=N1 (centres undefined)
- T/C [15]: 79 % of control
- T/C (dose: 100.0 mg/kg/injection, schedule: Q01DX010 (sc), vehicle: saline): 101 % of control

Structure (SMILES): O=Cc1ccc([N+](=O)[O-])s1
- T/C (dose: 25.0 mg/kg/injection, schedule: Q01DX010 (sc), vehicle: saline with Tween-80): 166 % of control
- T/C [16]: 176 % of control
- T/C [8]: 97 % of control

Structure (SMILES): CNC(=O)OCc1c(COC(=O)NC)c(-c2ccc(Cl)c(Cl)c2)n2c1Cc1ccccc1C2
- T/C (dose: 300.0 mg/kg/injection, schedule: Q04DX004 (sc), vehicle: distilled water + Tween-80): 109 % of control
- T/C (dose: 600.0 mg/kg/injection, schedule: Q04DX004 (sc), vehicle: distilled water + Tween-80): 119 % of control
- T/C (dose: 1200.0 mg/kg/injection, schedule: Q04DX004 (sc), vehicle: distilled water + Tween-80): 61 % of control
- T/C (dose: 2400.0 mg/kg/injection, schedule: Q04DX004 (sc), vehicle: distilled water + Tween-80): 65 % of control

Structure (SMILES): OCCOCC(F)(F)F
- T/C (dose: 300.0 mg/kg/injection, schedule: Q04DX004 (sc), vehicle: saline): 67 % of control
- T/C (dose: 600.0 mg/kg/injection, schedule: Q04DX004 (sc), vehicle: saline): 91 % of control
- T/C (dose: 1200.0 mg/kg/injection, schedule: Q04DX004 (sc), vehicle: saline): 100 % of control
- T/C (dose: 2400.0 mg/kg/injection, schedule: Q04DX004 (sc), vehicle: saline): 58 % of control

Structure (SMILES): CC(=O)OCC1OC(OC2=C(CC=C(C)C)C(=O)c3ccccc3C2=O)C(OC(C)=O)C(OC(C)=O)C1OC(C)=O (centres undefined)
- T/C (dose: 100.0 mg/kg/injection, schedule: Q04DX004 (sc), vehicle: Klucel (hydroxypropylcellulose) (HPC)): 159 % of control
- T/C (dose: 200.0 mg/kg/injection, schedule: Q04DX004 (sc), vehicle: Klucel (hydroxypropylcellulose) (HPC)): 105 % of control

Structure (SMILES): C=C1C(=O)OC2CC(C)C3C4OC4C(O)C3(C)C(O)C12 (centres undefined)
- T/C [14]: 99 % of control
- T/C [12]: 121 % of control
- T/C [13]: 107 % of control

Structure (SMILES): CC(=O)Nc1ccc(C(=O)C=O)cc1
- T/C [16]: 57 % of control
- T/C [8]: 88 % of control
- T/C [9]: 68 % of control
- T/C [10]: 26 % of control
- T/C [11]: 78 % of control

Structure (SMILES): C[n+]1ccc(Nc2ccc(NC(=O)c3ccc(Nc4cc[n+](C)c5ccc(N)cc45)cc3)cc2)cc1
- T/C (dose: 8.0 mg/kg/injection, schedule: Q04DX004 (sc), vehicle: distilled water + Tween-80): 74 % of control
- T/C (dose: 16.0 mg/kg/injection, schedule: Q04DX004 (sc), vehicle: distilled water + Tween-80): 211 % of control
- T/C (dose: 25.0 mg/kg/injection, schedule: Q04DX004 (sc), vehicle: distilled water + Tween-80): 118 % of control
- T/C (dose: 32.0 mg/kg/injection, schedule: Q04DX004 (sc), vehicle: distilled water + Tween-80): 303 % of control
- T/C (dose: 50.0 mg/kg/injection, schedule: Q04DX004 (sc), vehicle: distilled water + Tween-80): 51 % of control

Structure (SMILES): CCCCCC#CC1OC12CCCCC2 (centres undefined)
- T/C [2]: 74 % of control
- T/C [3]: 62 % of control
- T/C (dose: 600.0 mg/kg/injection, schedule: Q04DX004 (sc), vehicle: saline with Tween-80): 77 % of control
- T/C (dose: 1200.0 mg/kg/injection, schedule: Q04DX004 (sc), vehicle: saline with Tween-80): 100 % of control

Structure (SMILES): COc1cccc2c1C(=O)c1c(O)c3c(c(O)c1C2=O)C[C@H](O)C[C@@H]3OC1CC(N)C(O)C(C)O1 (some centres undefined)
- T/C (dose: 12.5 mg/kg/injection, schedule: Q01DX010 (sc), vehicle: saline): 114 % of control
- T/C (dose: 25.0 mg/kg/injection, schedule: Q01DX010 (sc), vehicle: saline): 41 % of control
- T/C [15]: 87 % of control
